In patent US20240173419A1, “CDK2 DEGRADERS AND USES THEREOF” (Kymera Therapeutics, Inc., priority 2022, published 2024):

Biological target: T1, CDK2 (Homo sapiens, UniProt P24941)
T1 construct: endogenous in cells; host or cells: MKN1 cells
Test: CDK2 degradation in MKN1 cells (AlphaLISA)
Assay type: cell-based
Details: 14 h incubation; for DC50: read-out: CDK2 degradation 14 h: Mean external-Abs DC50
Method in brief: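 MKN1 cells (2e4/well) treated 14 h at 37° C with 11-point 1:5 dilutions (0.001 nM-10 μM, 0.1% DMSO). CDK2 in lysates quantified by AlphaLISA, no-cell background subtracted; DC50 from four-parameter logistic fit.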

Structure (SMILES)	CDK2 degradation 14 h: Average Dmax %	DC50
Cc1cc(S(=O)(=O)NC2CCC(CN3CCN(c4c(C)cc(C5CCC(=O)NC5=O)cc4F)CC3)CC2)ccc1Nc1ncc(C(F)(F)F)c(N2CCCC(C)(O)C2)n1 (centres unmarked) [I-1146]	A (A (>75% o))	< 0.1 µM
Cc1cc(S(=O)(=O)N2CCC(CN(C)C3CCN(c4cccc5c4n(C)c(=O)n5C4CCC(=O)NC4=O)CC3)CC2)ccc1Nc1nccc(-c2cnc(C)n2C(C)C)n1 (centres unmarked) [I-1152]	A (A (>75% o))	< 0.1 µM
Cc1cc(S(=O)(=O)N2CCC(CN(C)C3CCN(c4cccc5c4n(C)c(=O)n5C4CCC(=O)NC4=O)CC3)CC2)ccc1Nc1ncc(C(F)(F)F)c(C2CCCCC2)n1 (centres unmarked) [I-1153]	A (A (>75% o))	0.1 to 0.5 µM
Cc1cc(S(=O)(=O)N2CCC(CN(C)C3CCN(c4cccc5c4n(C)c(=O)n5C4CCC(=O)NC4=O)CC3)CC2)ccc1Nc1ncc(C(F)(F)F)c(-c2cnn(C)c2)n1 (centres unmarked) [I-1155]	A (A (>75% o))	< 0.1 µM
